Data on 9 compounds can be found in patent publication US9650339B2, “Inhibitors of histone demethylases” (Gilead Sciences, Inc., priority 2013, dated 2017).

What all share (type): biochemical
Assay [1] addresses T1, KDM3B (JMJD1B) (Homo sapiens, UniProt Q7LBC6).
T1 construct: 842-1761; host or cells: Bac (baculovirus system)
T1 sequence (Q7LBC6 842-1761): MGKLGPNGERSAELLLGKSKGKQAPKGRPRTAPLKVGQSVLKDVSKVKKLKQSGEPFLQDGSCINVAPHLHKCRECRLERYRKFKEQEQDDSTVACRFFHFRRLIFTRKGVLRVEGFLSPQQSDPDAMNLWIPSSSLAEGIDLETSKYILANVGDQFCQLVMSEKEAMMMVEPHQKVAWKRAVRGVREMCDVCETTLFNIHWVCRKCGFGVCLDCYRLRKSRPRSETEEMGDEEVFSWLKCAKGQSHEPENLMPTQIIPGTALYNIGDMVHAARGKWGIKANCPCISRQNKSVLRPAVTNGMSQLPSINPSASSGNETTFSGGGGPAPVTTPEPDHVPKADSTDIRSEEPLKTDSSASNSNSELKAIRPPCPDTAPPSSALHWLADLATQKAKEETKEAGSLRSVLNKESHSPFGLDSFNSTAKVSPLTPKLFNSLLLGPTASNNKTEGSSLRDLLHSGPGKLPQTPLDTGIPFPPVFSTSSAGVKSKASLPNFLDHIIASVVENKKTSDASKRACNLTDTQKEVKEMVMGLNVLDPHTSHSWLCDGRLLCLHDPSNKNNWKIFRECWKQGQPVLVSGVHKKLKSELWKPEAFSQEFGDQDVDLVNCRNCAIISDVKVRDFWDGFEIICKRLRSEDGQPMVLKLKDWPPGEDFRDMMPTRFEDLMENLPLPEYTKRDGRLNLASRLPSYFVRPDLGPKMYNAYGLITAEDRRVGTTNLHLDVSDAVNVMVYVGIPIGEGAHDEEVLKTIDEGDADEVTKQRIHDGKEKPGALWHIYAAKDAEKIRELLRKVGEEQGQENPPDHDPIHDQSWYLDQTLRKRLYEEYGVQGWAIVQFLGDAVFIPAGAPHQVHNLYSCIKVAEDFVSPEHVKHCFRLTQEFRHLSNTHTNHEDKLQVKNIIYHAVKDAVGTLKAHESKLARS
The experiment in a line: Histone lysine demethylase AlphaLISA assay, KDM3B. The following applies: read-out: KDM3B HDME Inhibition IC50. In short, it runs like this:
(§1)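 Biotinylated methylated H3 peptides (K9, K4, K27 or K36 marks) served as substrate, with 25 μM L-Asc and 10 μM α-KG. Enzymes were preincubated 10 min, then exposed to compounds (3% DMSO solutions) 10 min; product detected by AlphaLISA acceptor and streptavidin donor beads at room temperature in dark.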
(In general: Bead proximity is the source of the signal in Alpha formats.)

Assay [2] has as its target T2, KDM4C (JMJD2C) (Homo sapiens, UniProt Q9H3R0).
T2 sequence (Q9H3R0 1-349): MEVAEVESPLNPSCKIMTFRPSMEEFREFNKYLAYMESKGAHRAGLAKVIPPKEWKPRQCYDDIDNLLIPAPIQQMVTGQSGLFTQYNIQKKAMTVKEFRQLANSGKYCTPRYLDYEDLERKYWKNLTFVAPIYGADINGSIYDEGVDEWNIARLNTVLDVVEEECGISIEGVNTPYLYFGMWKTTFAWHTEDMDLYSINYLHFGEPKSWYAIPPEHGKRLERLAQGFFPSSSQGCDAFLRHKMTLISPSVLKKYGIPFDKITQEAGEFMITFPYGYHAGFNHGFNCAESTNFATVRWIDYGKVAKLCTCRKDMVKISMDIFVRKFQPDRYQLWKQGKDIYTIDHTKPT
The experiment in a line: Histone lysine demethylase AlphaLISA assay, KDM4C. The note with it: read-out: KDM4C HDME Inhibition IC50. In outline: as §1

In assay [3] the target is KDM6A (UTX) (Homo sapiens, UniProt O15550). Put plainly: Histone lysine demethylase AlphaLISA assay, KDM6A. The following applies: read-out: KDM6A HDME Inhibition IC50. In short, it runs like this: as §1
Assay [4] has as its target T3, KDM4B (JMJD2B) (Homo sapiens, UniProt O94953).
T3 construct: 2-500; purchased BPS; host or cells: Bac (baculovirus system)
T3 sequence (O94953 2-500): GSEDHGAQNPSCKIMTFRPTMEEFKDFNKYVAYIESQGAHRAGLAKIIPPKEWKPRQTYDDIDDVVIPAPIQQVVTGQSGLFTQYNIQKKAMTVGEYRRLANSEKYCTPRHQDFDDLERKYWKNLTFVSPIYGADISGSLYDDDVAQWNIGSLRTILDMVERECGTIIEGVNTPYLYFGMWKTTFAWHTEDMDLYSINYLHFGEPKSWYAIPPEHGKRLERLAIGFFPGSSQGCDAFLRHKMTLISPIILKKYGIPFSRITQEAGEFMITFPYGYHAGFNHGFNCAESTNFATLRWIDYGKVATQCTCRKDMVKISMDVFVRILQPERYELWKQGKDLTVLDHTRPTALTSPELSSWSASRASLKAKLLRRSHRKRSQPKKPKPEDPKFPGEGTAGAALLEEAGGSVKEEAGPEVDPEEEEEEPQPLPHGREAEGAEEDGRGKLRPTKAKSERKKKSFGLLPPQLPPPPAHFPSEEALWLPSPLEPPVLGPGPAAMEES
Put plainly: Histone lysine demethylase AlphaLISA assay, KDM4B. The following applies: read-out: KDM4B HDME Inhibition IC50. In outline: as §1

SMILES strings stand for the structures.

Chain of KDM6A (UTX) (O15550 919-1401): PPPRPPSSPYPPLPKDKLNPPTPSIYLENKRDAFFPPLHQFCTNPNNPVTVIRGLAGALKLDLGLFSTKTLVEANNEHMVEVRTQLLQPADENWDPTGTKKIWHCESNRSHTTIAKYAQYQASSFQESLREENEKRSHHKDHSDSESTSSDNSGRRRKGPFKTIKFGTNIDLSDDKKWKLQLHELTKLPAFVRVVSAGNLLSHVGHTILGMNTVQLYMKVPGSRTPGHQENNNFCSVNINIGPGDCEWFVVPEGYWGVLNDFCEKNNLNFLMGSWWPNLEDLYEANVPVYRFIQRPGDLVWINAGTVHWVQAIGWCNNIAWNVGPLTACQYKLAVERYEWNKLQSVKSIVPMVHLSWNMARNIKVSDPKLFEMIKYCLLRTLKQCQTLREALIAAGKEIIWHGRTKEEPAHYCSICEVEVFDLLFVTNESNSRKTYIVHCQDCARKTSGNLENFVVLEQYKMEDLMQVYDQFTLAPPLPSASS

As usually defined, the IC50 is the concentration that inhibits the measured activity by half. Take `CN(C)CCNCc1ccnc(CNCCCN(C)Cc2ccccc2)c1` [Compound 18, benzyl[3-({[4-({[2-(dimethylamino)ethyl]-amino}methyl)pyridin-2-yl]methyl}-amino)propyl]-methylamine]: the IC50 in assay [1], in assay [2], in assay [3] and in assay [4] was more than 2500 nM each time.
On to `O=Cc1ccnc(CNCC(=O)NC2CCN(Cc3ccccc3)C2)c1` (stereo not shown) [Compound 113, N-(1-benzylpyrrolidin-3-yl)-2-{[(4-formylpyridin-2-yl)methyl]amino}-acetamide], for which the IC50 in assay [1] was more than 2500 nM; in assay [2], 250 to 2500 nM; in assay [3], more than 2500 nM; in assay [4], less than 250 nM.
On to `COC(=O)CNCc1cc(/C=N/C2CC2)ccn1` [Compound 59, methyl 2-[({4-[N-cyclopropyl-carboximidoyl]pyridin-2-yl}methyl)amino]-acetate], for which the IC50 in assay [1] was more than 2500 nM; in assay [2] it was 250 to 2500 nM; in assay [3], more than 2500 nM; in assay [4] it was less than 250 nM.
Consider `CCN(CC)CCCCNCc1cc(C2NCCCN2C)ccn1` (stereo not shown) [Compound 68, [4-(diethylamino)butyl]({[4-(1-methyl-1,3-diazinan-2-yl)pyridin-2-yl]methyl})amine], for which the results for the IC50 in assay [2] and in assay [3] were 250 to 2500 nM and more than 2500 nM, respectively.
Turning to `CCN(CCN(C)C)C(=O)CN(Cc1cc(CNC(=O)C(F)(F)F)ccn1)C(=O)C(F)(F)F` [Compound 26, N-[(2-{[N-({[2-(dimethylamino)ethyl]-(ethyl)carbamoyl}-methyl)-2,2,2-trifluoroacetamido]-methyl}pyridin-4-yl)methyl]-2,2,2-trifIuoroacetamide], the IC50 in assay [2] and in assay [3] was more than 2500 nM in each case.
On to `COCCNCc1ccnc(CNCCCN(C)Cc2ccccc2)c1` [Compound 19, benzyl(3-{[(4-{[(2-methoxyethyl)amino]-methyl}pyridin-2-yl)methyl]amino}-propyl)methylamine], for which the IC50 in assay [1], in assay [2], in assay [3] and in assay [4] was more than 2500 nM in each case.
Turning to `O=Cc1ccnc(CNCCCCN(Cc2ccccc2)C2CC2)c1` [Compound 109, 2-[({4-[benzyl-(cyclopropyl)amino]-butyl}amino)methyl]-pyridine-4-carbaldehyde], the IC50 in assay [1] was more than 2500 nM; in assay [2], 250 to 2500 nM; in assay [3], more than 2500 nM; in assay [4] it was less than 250 nM.
As for `CN(C)CCCCNCc1cc(CN)ccn1` [Compound 2, [2-({[4-(dimethylamino)butyl]-amino}methyl)pyridin-4-yl]methanamine], the IC50 in assay [1], in assay [2], in assay [3] and in assay [4] was more than 2500 nM in each case.
`COc1ccccc1CN1CCC(NC(=O)CNCc2cc(CNC3CC3)ccn2)CC1` [Compound 20, 2-[({4-[(cyclopropylamino)-methyl]pyridin-2-yl}methyl)amino]-N-{1-[(2-methoxyphenyl)methyl]-piperidin-4-yl}acetamide]: the figures for the IC50 in assay [1], in assay [2] and in assay [4] were more than 2500 nM, 250 to 2500 nM and less than 250 nM, respectively.
